Earlier results on one compound are cited in US5498598A, “Composition for nasal administration of desmopressin” (Ferring AB, priority 1995, dated 1996).

For the data set the following is noted: in vivo.

Structures are written as SMILES.

In the case of `NC(=O)CC[C@@H]1NC(=O)[C@H](Cc2ccccc2)NC(=O)[C@H](Cc2ccc(O)cc2)NC(=O)CCSSC[C@@H](C(=O)N2CCC[C@H]2C(=O)N[C@H](CCCN=C(N)N)C(=O)NCC(N)=O)NC(=O)[C@H](CC(N)=O)NC1=O` [desmopressin, 1-(3-mercaptopropionic acid)-8-D-arginine-vasopressin], the “absorption of a given amount in larger volume versus the same amount in smaller volume” value is given as “absorbed substantially less effectively”.
